Ends that are not written are not given here.
Legend:
mouse islets = assay: Insulin release from perifused islets (radio immunoassay); assay type: cell-based; details: for insulin secretion rate: 40-min stimulation; for stimulation of insulin secretion from islets: 2.5 mM caffeine, 6 μM MBED, FIG. 6
Method: Normal lean mice (BALB/c, Bomholtgard, Ry, Denmark) weighing 20-25 g were starved overnight and islets isolated by collagenase digestion and dextran purification method (Shi, C. L., Cell Transplant. 6, 33-37 (1997)). Islets were then cultured overnight in RPMI 1640 medium containing 10% FBS, 11.2 mM glucose, 60 i.u./ml penicillin and 60 μg/ml gentamicin, in a water-saturated atmosphere of air and 5% CO2.
Groups of 50 islets were transferred to a perifusion chamber housed in an infant incubator at 37° C. They were perifused at a rate of 1 ml/ min with Krebs-Ringer bicarbonate buffer supplemented with 20 mM HEPES, 0.1% BSA, glucose and drugs as required. The buffer was continuously gassed with 95% 02 and 5% CO2. The islets were perifused for 30 min with this medium containing 2 mM glucose, followed by a 40-min stimulation with 11.2 mM glucose alone (control), or 11.2 mM glucose plus drugs. During the last five minutes of perifusion with 2 mM glucose, three samples of effluent were collected to measure basal rate of insulin secretion. After switching to the 11.2 mM glucose the effluent was sampled every minute for the first five minutes and then at the intervals of 5 minutes. The average rate of insulin secretion (ng/min/50 islets) was calculated by integrating individual perifusion profile. Insulin was measured by radio immunoassay using crystalline mouse insulin as standard (Shi, C. L. cited above).

INS-1E cells [1] = assay: Insulin release from INS-1E cells (insulin ELISA); assay type: cell-based, rat
Method: Glucose-responsive clonal insulinoma cells (INS-1E) were cultured in RPMI-1640 medium supplemented with FBS (5%, v/v), penicillin (50 i.u. /ml), streptomycin (50 μg/ml), 2-mercaptoethanol (50 μM), HEPES (10 mM) and sodium pyruvate (1 mM) (Maechler, P. et al., IUBMB.Life 50, 27-31(2000). Medium was changed every other day.
INS-1E cells (200,000/ well) were seeded in 24-well plates and cultured for 6-7 days before using them for insulin release assay. On the day of experiment, cells were incubated in RPMI without glucose for 2 hours. Cells attached to the wells were then washed three times with warm (37° C.) medium (KRBH) containing (in mM): NaCl 140, NaHCO3 2, KCl 3.6, NaH2PO4 0.5, MgSO4 0.5, HEPES 10, CaCl2, 1.5, BSA 0.1% and incubated for 30 minutes at 37°. Cells were then incubated with 500 μl of the test solutions, by adding solution to one well at a time, every 20 sec. After one hour of incubation, 200 μl of supernatant was transferred to Eppendorf tubes, again one well at a time, every 20 sec. The collected materials were then centrifuged and supernatants were used for insulin ELISA.

cAMP-PDEs = assay: Phosphodiesterase assay (cAMP-PDE activity in insulinoma cell fractions); assay type: biochemical, rat; details: for inhibition of cAMP-PDEs: methylxanthine 2.5 mM, FIG. 8D
Method: Rat insulinoma cells were detached from the flasks by trypsin-EDTA. The cells were homogenized in Tris buffer containing (in mM): Tris 10, sucrose 250, EDTA 1.0, phenylmethylsulphonyl fluoride 0.01 and benzamidine 1.0The homogenates were centrifuged (48,000 g, 20 min, 4° C.). Both soluble extracts and the pellet were assayed for cAMP-PDE activity with 0.5 μM 2,8-[^3H]-cyclic AMP as substrate (see Ahmad, M. et al., Br.J.Pharmacol., 129, 1228-1234 (2000) and Thompson, W. J. and Appleman, M. M., Biochemistry, 10, 311-316 (1971)). Assays were performed by the two-step radiometric assay under linear rate formation of product and where less than 10% of substrate is utilized. Activity was expressed as pmol/min/ml and percentage inhibition of the control value.

β-cells = assay: Screening for CICR-active agents by periodic amplification of Ca2+ signals in single β-cells (fura-2 microfluorometry); assay type: cell-based, mouse
INS-1E cells [2] = assay: Confocal microscopy imaging of [Ca2+]i in fluo-3 loaded cells; assay type: cell-based, rat
Method: INS-1E cells were incubated in medium containing 5 mM glucose and 5 μM fluo-3 AM for 30 minutes followed by 10 min in medium without fluo-3Cover slips were mounted in a superfusion chamber, which was superfused with physiological solution at 3 ml/min. A three-way solenoid valve system allowed for rapid exchange of solutions. The dead space of the system (from valve inlet to chamber) was -0.5 ml. The flow was increased to 6 ml/min 15 s prior to switching from control solution to experimental solutions and reduced back to 3 ml/min after return to normal solution. [Ca^2+]1 were recorded with a BioRad laser scanning confocal system (BioRad MRC 1024) attached to a Nikon Diaphot 200 inverted microscope equipped with Nikon Plan Apo 60×1.4 NA oil immersion objective. Fluo-3 was excited at 488 nm (15 mW krypton-argon mixed gas laser, intensity attenuated to 3%) and the emitted light was collected through a 522 nm narrow band filter. Images were obtained with the iris closed to the minimum size that was compatible with good image quality. For each image, 3× Kalman averaging was used. Images were stored and converted to pseudo-color images using Scion Image software (Scion Corporation, Maryland).
Ratios were calculated using the initial fluorescence F0, and the observed fluorescence F using the equation R=F/F0, and these ratios were subsequently converted into [Ca^2+]i using the equation: [Ca^2+]i=RxKD/((KD/resting [Ca^2+]i)−R). […] Resting [Ca^2+]i in these cells under the conditions of experiment was 35 nM. All experiments were carried out at room temperature (25° C.).

INS-1E cells [3] = assay: Measurement of cAMP content; assay type: cell-based, rat; details: caffeine 0.25-3 mM
Method: INS-1E cells (20000 per well) were cultured for three days in 24 well plates. On the day of the experiments cells were washed and incubated for 30 min at 37° C. in the KRBH buffer containing 3 mM glucose. Cells were then washed again and solutions containing 11.2 mM glucose and test substances were added. After 10 min, incubations were terminated by removing the medium and precipitating cell protein in 80% ice-cold ethanol. Cells were then scraped and all contents of the wells were transferred to tubes. After centrifugation at 14,000 rpm for five min, the supernatants were collected and freeze-dried over-night. The cAMP content in each sample was determined with a radio ligand-binding assay using a bovine heart cAMP-binding protein as described by Pyne, N. J. and Tolan, D., Pyne, S. in Biochem.J 328 (Pt 2), 689-694 (1997).

S5 cells = assay: Screening for CICR by periodic amplification of Ca2+ signals in S5 cells; assay type: cell-based, rat; details: MBED 50 μM, FIG. 4
Method: A new type of β-cell, called the S5 cell, which is particularly suitable for use in screening CICR-active drugs in β-cells has been developed by the present inventor. The S5 cells can be obtained from INS-1E cells by adapting the latter to culture conditions where fetal bovine serum is reduced to 2.5% and 2-mercaptoethanol is increased to 500 μM. The S5 cells are more differentiated, more slowly growing than ordinary insulinoma cells, and performs more like normal β-cells.
The S5 cells used in the examples below were obtained by adapting the cells to the above culture conditions over 37 passages. These cells were cultured in RPMI 1640, with L-Glutamine (Life Technologies: Catalog. No. 21875-034), supplemented with HEPES (10 mM, Life Technologies. Catalog. No. 15630-049), and sodium pyruvate (1 mM, Life Technologies. Catalog No. 11360-039). 2.5% (v/v) heat-inactivated fetal bovine serum was added to this medium and the medium was aliquoted in 50 ml tubes. To this medium, 500 μM 2-mercaptoethanol (Life Technologies. Catalog. No. 31350-010) and penicillin (50 i.u./ml), streptomycin (50 μg/ml) (Life Technologies. Catalog. No. 15070-063) was added immediately before the medium was used for culture. 2-mercaptoethanol (50 mM, stock) was aliquoted and stored frozen in 100 μl portions and was thawed just before use. […]

[4] = methylxanthine 2.5 mM, 11.2 mM glucose, 1 hr, FIG. 8A/8C
[5] = Example 6, FIG. 3: 10 mM glucose

## Cn1c(=O)c2ncn(C)c2n(C)c1=O [isocaffeine]
Mouse islets; 11.2 mM glucose
  insulin secretion rate: 1.36±0.35 ng/min/50 islets
  stimulation of insulin secretion from islets: no significant stimulatory effect
INS-1E cells [1]; [4]
  insulin secretion: stimulated insulin secretion significantly
cAMP-PDEs
  inhibition of cAMP-PDEs: did not inhibit cAMP-PDEs
β-cells; [5]
  periodic amplification of Ca2+ signals (CICR): gave rise to periodic amplifications of Ca^2+ signals

## Cn1cnc2c(=O)[nH]c(=O)n(C)c21 [3,9-dimethylxanthine]
Mouse islets; 11.2 mM glucose
  insulin secretion rate: 2.76±0.81 ng/min/50 islets
  stimulation of insulin secretion from islets: no significant stimulatory effect
INS-1E cells [1]; [4]
  insulin secretion: equally effective as caffeine in stimulating insulin secretion
cAMP-PDEs
  inhibition of cAMP-PDEs: slightly less potent than caffeine in inhibiting cAMP-PDEs

## Cn1c(=O)c2c(ncn2C)n(C)c1=O [caffeine]
INS-1E cells [2]; caffeine 5 mM, FIG. 10 upper panel
  change in [Ca2+]i: transient increase on [Ca^2+]i
Mouse islets; 11.2 mM glucose
  insulin secretion rate: 5.06±1.17 ng/min/50 islets
  stimulation of insulin secretion from islets: persistently stimulated both the first- and second-phases of insulin secretion
INS-1E cells [1]; FIG. 9B
  concentration giving maximal stimulation of secretion: 0.25 to 0.75 mM
INS-1E cells [1]; caffeine 0.25 mM, FIG. 9B
  insulin secretion: near-maximal stimulation of insulin secretion
INS-1E cells [1]; caffeine 0.75 mM, KATP channel bypassed by diazoxide and KCl, FIG. 8B
  insulin secretion: Stimulation of insulin secretion by caffeine (0.75 mM) was observed
INS-1E cells [1]; caffeine 0.75 mM, without ryanodine
  insulin secretion rate: 328±22 ng/10^6 cell/hr
INS-1E cells [1]; caffeine 2.5 mM, 3 mM glucose, 1 hr, FIG. 8A
  insulin secretion: did not alter insulin secretion
INS-1E cells [1]; [4]
  insulin secretion: stimulated secretion
INS-1E cells [3]
  effect on cAMP content: did not increase cAMP content
β-cells
  periodic amplified Ca2+ release in β-cells (summary of screening): elicit periodic amplified Ca^2+ release
β-cells; [5]
  periodic amplification of Ca2+ signals (CICR): gave rise to periodic amplifications of Ca^2+ signals

## O=C1CN(/N=C/c2ccc(-c3ccc([N+](=O)[O-])cc3)o2)C(O)=N1 [dantrolene]
INS-1E cells [1]; dantrolene 75 μM, FIG. 11B
  effect on glucose-dependent stimulation of insulin secretion by caffeine: abolished

## Cn1c2cnccc2c2c(Br)c(O)c(Br)cc21 [MBED, 5,7-dibromo-6-hydroxy-9-methylpyrido[3,4-b]indole]
INS-1E cells [2]
  potency relative to caffeine in increasing [Ca2+]i: more potent than caffeine
INS-1E cells [2]; MBED 50 μM, FIG. 7
  change in [Ca2+]i: increased [Ca^2+]i
Mouse islets; 6 μM MBED vs 2.5 mM caffeine
  potency relative to caffeine in islets: clearly more potent than caffeine
Mouse islets; 11.2 mM glucose
  reversal of stimulated secretion on wash out (lack of major toxic effect): reversed completely on wash out
  stimulation of insulin secretion from islets: persistently stimulated both the first- and second-phases of insulin secretion
INS-1E cells [1]; 11.2 mM glucose
  potency in stimulating insulin secretion relative to caffeine: about 400 times
INS-1E cells [1]; MBED 6 μM, 3 mM glucose, FIG. 5A
  insulin secretion: no stimulation of insulin secretion
INS-1E cells [1]; MBED 6 μM, 11.2 mM glucose, FIG. 5A
  insulin secretion: almost doubled the insulin secretion
INS-1E cells [1]; MBED 0.1 to 100 μM, 11.2 mM glucose, FIG. 5B
  dose response of insulin secretion: stimulated insulin secretion in a does-dependent manner
cAMP-PDEs; MBED 5 μM
  Cytosolic cAMP-PDE activity: 27.7 ± 2.5 pmol/min/mL
  Membrane cAMP-PDE activity: 26.5 pmol/min/mL
cAMP-PDEs; MBED 50 μM
  Cytosolic cAMP-PDE activity: 31.6 ± 0.7 pmol/min/mL
  Membrane cAMP-PDE activity: 23.2 pmol/min/mL
cAMP-PDEs; MBED 5 and 50 μM, Table 1
  inhibition of PDEs: did not inhibit PDEs
S5 cells
  CICR (periodic amplification of Ca2+ signals): CICR can clearly be identified
β-cells
  periodic amplified Ca2+ release in β-cells (summary of screening): elicit periodic amplified Ca^2+ release

## glucagons-like peptide 1: test substance glucagons-like peptide 1 (HAEGTFTSDVSSYLEGQAAKEFIAWLVKGR; ends and bridges not checked; UniProt P01275 98-127, looked up)
β-cells; Example 5, FIG. 2: 30 mM KCl, 10 μM D600 or verapamil, 13 mM glucose
  periodic amplification of Ca2+ signals (CICR): gave rise to periodic amplification of Ca^2+ signals

## C/C=C(/C)C(=O)O[C@H]1C(C)=C2[C@H]([C@@H]1OC(=O)CCCCCCC)[C@@](C)(OC(C)=O)C[C@H](OC(=O)CCC)[C@@]1(O)[C@H]2OC(=O)[C@@]1(C)O [thapsigargin]
INS-1E cells [1]; thapsigargin-treated (Ca2+-depleted) cells
  basal insulin secretion: not different compared to that in controls cells
INS-1E cells [1]; thapsigargin-treated (ER Ca2+ depleted) cells, caffeine 0.75 mM, FIG. 11A
  effect on glucose-dependent caffeine-stimulated secretion: significantly reduced but not abolished

## ryanodine
INS-1E cells [1]; 100 μM ryanodine, 1 hr exposure
  effect on glucose-induced insulin secretion: did not alter the glucose-induced insulin secretion
INS-1E cells [1]; 100 μM ryanodine, 1 hr exposure, n=4
  insulin secretion rate (glucose-induced): 193±11 ng/10^6 cell/hr
INS-1E cells [1]; caffeine 0.75 mM plus 100 μM ryanodine
  insulin secretion rate: 354±34 ng/10^6 cell/hr

— patent US20030148259A1, “Method of identifying insulin secretion stimulating compounds, and the use of such compounds in treating insulin-secretion related disorders” (priority 2002, published 2003)
